Where two headings read alike, the source gives them in different places.
Target: T1, STAT6 (Homo sapiens, UniProt P42226)
T1 construct: endogenous in cells; host or cells: MOLM-16, KU-812, SKNO1, MB231, L1236
T1 sequence (P42226 1-847): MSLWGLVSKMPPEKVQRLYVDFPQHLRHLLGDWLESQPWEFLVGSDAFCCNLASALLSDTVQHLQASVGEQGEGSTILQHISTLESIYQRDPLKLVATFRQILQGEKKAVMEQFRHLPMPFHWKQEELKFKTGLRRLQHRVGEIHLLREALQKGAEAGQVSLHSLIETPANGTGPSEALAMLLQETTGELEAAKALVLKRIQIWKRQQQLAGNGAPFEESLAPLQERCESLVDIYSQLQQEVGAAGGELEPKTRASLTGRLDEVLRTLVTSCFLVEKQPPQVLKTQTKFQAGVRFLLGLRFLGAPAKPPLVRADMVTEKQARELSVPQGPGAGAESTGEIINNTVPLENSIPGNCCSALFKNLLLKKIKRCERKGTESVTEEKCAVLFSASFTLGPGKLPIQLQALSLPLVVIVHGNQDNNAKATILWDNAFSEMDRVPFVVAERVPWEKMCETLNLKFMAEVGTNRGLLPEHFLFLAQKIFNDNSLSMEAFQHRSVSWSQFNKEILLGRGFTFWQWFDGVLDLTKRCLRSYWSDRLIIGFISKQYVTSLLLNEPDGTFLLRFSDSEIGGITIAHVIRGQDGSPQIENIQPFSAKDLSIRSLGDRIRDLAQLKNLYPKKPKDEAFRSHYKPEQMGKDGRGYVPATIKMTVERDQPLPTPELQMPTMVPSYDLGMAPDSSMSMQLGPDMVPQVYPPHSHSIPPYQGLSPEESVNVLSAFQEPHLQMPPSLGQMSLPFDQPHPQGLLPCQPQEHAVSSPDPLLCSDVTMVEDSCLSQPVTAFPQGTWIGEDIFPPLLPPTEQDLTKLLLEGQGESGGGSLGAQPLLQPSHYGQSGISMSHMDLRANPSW
Experiment: Immunoblotting (Western blot) analysis of STAT6 degradation efficiency of degraders in treated cells
Assay type: cell-based
Procedure: Evaluation of the degradation efficiency of degraders may be accomplished by immunoblotting analysis. The representative general protocol is the following:
Cells are maintained in the appropriate culture medium with 10% FBS at 37° C. and an atmosphere of 5% CO2. Cell lines are used within three months of thawing fresh vials. Cells are lysed 1× Cell Lysis Buffer (Cell Signaling Technology, #9803), resolved by SDS-PAGE NuPAGE gel (Thermo Fisher Scientific), and transferred to a PVDF membrane (Millipore). Membranes are blocked using Odyssey TBS Blocker Buffer (LI-COR). IRDye 680RD and 800CW Dye-labeled secondary antibodies (LI-COR) are used. The washed membranes are scanned using Odyssey CLx imager (LI-COR). The intensity of Western blot signaling is quantitated using the Odyssey software. Primary antibodies used are: STAT5 Rabbit mAb (Cell Signaling Technology, #94205), STAT6 Rabbit mAb (Cell Signaling Technology, #5397) and GAPDH mouse monoclonal antibody (Santa Cruz Biotechnology, sc-47724).
To evaluate the degradation efficiency of degraders, immunoblotting analysis was performed. The general protocol is the following.
About 1 million cells for each data point were treated with compounds at indicated concentrations and durations. Untreated and treated cells in cell culture medium were transferred into tubes, followed by centrifugation at 3,000 rpm and 4° C. for 6 min Supernatants were removed from tubes and radioimmunoprecipitation assay (RIPA) lysis buffer supplemented with 1% protease inhibitor cocktail (Fisher Scientific cat. PI87786) and phosphatase inhibitor (Roche cat. 04906837001) were added to tubes containing the remaining cell pellets. The tubes were then left on ice for 30 min and placed in a −80° C. freezer. Subsequently they were thawed in 37° C. water, then centrifuged at 14,000 rpm for 15 min and the cell lysates transferred to new tubes. The concentration of total proteins in each tube was calculated using the Pierce BCA protein Assay kit (cat. 23225). Based on the calculated protein concentration, cell lysates containing approximately the same amount of proteins were transferred to new tubes, then distilled water and 4× Protein Sample Loading Buffer for Western Blots (LI-COR cat. 928-40004) supplemented with 20% of mercaptoethanol (Sigma Aldrich cat. M6250) were added on ice. The cell lysates were then reduced and denatured at 95° C. for 5 min. From the tubes containing cell lysates an equal amount of protein samples (20-40 μg) was loaded into precast 8%, 10%, 4%-12%, or 4%-20% Tris-glycine gels (Novex) filled with Tris-glycine SDS running buffer. After the proteins were resolved, they were transferred onto Immobile-FL PVDF Membrane (Millipore Sigma cat. IPFL00010), using Mini Trans-Blot Electrophoretic Transfer Cell (Bio-Rad 1703930). The membranes were blocked with Intercept Blocking Buffer (LI-COR cat. 927-70001) in LI-COR Western Blot boxes for 1 h at rt. The membranes were washed with 1× Tris-buffered saline-Tween-20 (TBST, 1× solution was made from 20×TBST solution, ThermoFisher Scientific cat. 28360) for 5 min 4 times. The membranes were incubated overnight at 4° C. in Intercept Blocking Buffer supplemented with primary antibodies (normally antibody:buffer 1:1000) and Tween-20. The membranes were washed with TBST for 5 min 4 times and were incubated with Intercept Blocking Buffer supplemented with IRDye 800CE Secondary Antibodies, IRDye 680RD Secondary Antibodies (LI-COR biosciences), Tween-20, and 10% SDS solution, for 1 h at rt. The membranes were then washed with TBST for 5 min 4 times and rinsed with deionized water before drying and scanning with Odyssey Dlx Amazing System (LI-COR). The immunoblots were finally quantified by the software.

[1] = MOLM-16 cells, class symbols, read-out: DC50 S6 MOLM-16
[2] = L1236 cells, read-out: DC50 S6 L1236

Structure (SMILES)	DC50 [1]	DC50 [2]	DC50 (MB231 cells, read-out: DC50 S6 MB231)
CC(C)(C)c1ccc(C[C@H](NC(=O)c2cc3cc(C(F)(F)P(=O)(O)O)ccc3s2)C(=O)N2C[C@@H](OCCCCCCC#Cc3cccc4c3CN(C3CCC(=O)NC3=O)C4=O)C[C@H]2C(=O)N2CCO[C@H](c3ccccc3)C2)cc1 (stereo partly drawn) [Compound 589, ((2-(((2S)-3-(4-(tert-butyl)phenyl)-1-((2S,4S)-4-((8-(2-(2,6-dioxopiperidin-3-yl)-1-oxoisoindolin-4-yl)oct-7-yn-1-yl)oxy)-2-((R)-2-phenylmorpholine-4-carbonyl)pyrrolidin-1-yl)-1-oxopropan-2-yl)carbamoyl)benzo[b]thiophen-5-yl)difluoromethyl)phosphonic acid]	1 to 10 µM	–	–
Cc1ncsc1-c1ccc([C@H](C)NC(=O)[C@@H]2C[C@@H](O)CN2C(=O)[C@@H](NC(=O)CCCCCCNC(=O)COc2ccc3c(c2)CN(C(=O)[C@@H](NC(=O)c2cc4cc(C(F)(F)P(=O)(O)O)ccc4s2)C(C)(C)C)[C@H](C(=O)N2CCO[C@H](c4ccccc4)C2)C3)C(C)(C)C)cc1 [Compound 466, (difluoro(2-(((S)-1-((S)-7-(2-((7-(((S)-1-((2S,4R)-4-hydroxy-2-(((S)-1-(4-(4-methylthiazol-5-yl)phenyl)ethyl)carbamoyl)pyrrolidin-1-yl)-3,3-dimethyl-1-oxobutan-2-yl)amino)-7-oxoheptyl)amino)-2-oxoethoxy)-3-((R)-2-phenylmorpholine-4-carbonyl)-3,4-dihydroisoquinolin-2(1H)-yl)-3,3-dimethyl-1-oxobutan-2-yl)carbamoyl)benzo[b]thiophen-5-yl)methyl)phosphonic acid]	> 10 µM	> 10 µM	–
CC(C)(C)[C@H](NC(=O)c1cc2cc(C(F)(F)P(=O)(O)O)ccc2s1)C(=O)N1C[C@@H](OCC(=O)NCCCC#Cc2cccc3c2C(=O)N(C2CCC(=O)NC2=O)C3=O)C[C@H]1C(=O)N1CCC[C@H](c2ccccc2)C1 (stereo partly drawn) [Compound 497, ((2-(((2S)-1-((2S,4S)-4-(2-((5-(2-(2,6-dioxopiperidin-3-yl)-1,3-dioxoisoindolin-4-yl)pent-4-yn-1-yl)amino)-2-oxoethoxy)-2-((R)-3-phenylpiperidine-1-carbonyl)pyrrolidin-1-yl)-3,3-dimethyl-1-oxobutan-2-yl)carbamoyl)benzo[b]thiophen-5-yl)difluoromethyl)phosphonic acid]	> 10 µM	–	–
Cc1ncsc1-c1ccc(CNC(=O)[C@@H]2C[C@@H](O)CN2C(=O)[C@@H](NC(=O)CCCCCCCCCNC(=O)CO[C@@H]2C[C@@H](C(=O)N(C)c3ccc(Br)cc3)N(C(=O)[C@@H](NC(=O)c3cc4cc(C(F)(F)P(=O)(O)O)ccc4s3)C(C)(C)C)C2)C(C)(C)C)cc1 [Compound 421, ((2-(((S)-1-((2S,4R)-2-((4-bromophenyl)(methyl)carbamoyl)-4-(2-((10-(((S)-1-((2S,4R)-4-hydroxy-2-((4-(4-methylthiazol-5-yl)benzyl)carbamoyl)pyrrolidin-1-yl)-3,3-dimethyl-1-oxobutan-2-yl)amino)-10-oxodecyl)amino)-2-oxoethoxy)pyrrolidin-1-yl)-3,3-dimethyl-1-oxobutan-2-yl)carbamoyl)benzo[b]thiophen-5-yl)difluoromethyl)phosphonic acid]	–	> 10 µM	> 10 µM
Cc1ncsc1-c1ccc([C@H](C)NC(=O)[C@@H]2C[C@@H](O)CN2C(=O)[C@@H](NC(=O)CCCCCNC(=O)CC(=O)N2CCN(C(=O)[C@@H](NC(=O)c3cc4cc(C(F)(F)P(=O)(O)O)ccc4s3)C(C)(C)C)[C@H](C(=O)N3CCO[C@H](c4ccccc4)C3)C2)C(C)(C)C)cc1 [Compound 447, (difluoro(2-(((S)-1-((S)-4-(3-((6-(((S)-1-((2S,4R)-4-hydroxy-2-(((S)-1-(4-(4-methylthiazol-5-yl)phenyl)ethyl)carbamoyl)pyrrolidin-1-yl)-3,3-dimethyl-1-oxobutan-2-yl)amino)-6-oxohexyl)amino)-3-oxopropanoyl)-2-((R)-2-phenylmorpholine-4-carbonyl)piperazin-1-yl)-3,3-dimethyl-1-oxobutan-2-yl)carbamoyl)benzo[b]thiophen-5-yl)methyl)phosphonic acid]	> 10 µM	> 10 µM	–

From patent publication US20230295197A1, “STAT5 and STAT6 Degraders and Uses Thereof” (REGENTS OF THE UNIVERSITY OF MICHICAN, priority 2022, published 2023)
